Source: PMC8004798, “Identification of Bioactive Compounds from Marine Natural Products and Exploration of Structure-Activity Relationships (SAR)” (Antibiotics, 2021)
In brackets after ≈: the same amount, converted by molar mass. Like-named read-outs stand apart in the source and are kept apart here.

Assays:
[1] = tested on: M. tuberculosis H37Rv; assay: Resazurin bacterial inhibition assay (MIC), M. tuberculosis; assay type: cell-based; conditions: Mycobacterium tuberculosis, 168 h, commercial compounds, 7 days, read-out: Minimum Inhibitory Concentration M. tuberculosis H37Rv
[2] = tested on: Human alveolar epithelial cells (A549); assay: Resazurin cytotoxicity assay, A549
Description: (§1) To identify marine samples with activity against MRSA, 1434 compounds from the AIMS Bioresources Library (provided by the Queensland Compound Library, Brisbane, Australia, now called Compounds Australia) were screened in a resazurin cell viability assay.
(§2) Toxicity of AIMS Extract Library. Human alveolar epithelial cells (A549), Madin-Darby canine kidney epithelial cells (MDCK), human leukaemia cells (THP-1), human hepatocellular carcinoma cells (Hep-G2) and human embryonic kidney cells 293 (HEK293) were grown and differentiated in complete RPMI (Roswell Park Memorial Institute Medium) and DMEM (Dulbecco’s Modified Eagle’s medium) tissue culture media (RPMIc and DMEMc, from the Thermo Fisher Scientific, Waltham, MA, USA) by adding 10% FBS, 200 µM L-glutamine and 1 mM HEPES buffer solution. To determine toxicity of the AIMS extract library, 2 × 10^5 of each cell type were added to a 96-well plate and left for 48 h in a humidified 5% CO2 incubator at 37 °C to adhere. Extract samples at a final concentration of 0.5 mg mL^−1 were added to the wells, then the plates incubated for 4 more days in a humidified 5% CO2 incubator at 37 °C. Then, resazurin (10 μL of 0.05% w/v) was added and after 4 h, fluorescence measured as described previously. The cell viability was calculated as percentage fluorescence relative to untreated cells.

[3] = tested on: human embryonic kidney cells 293 (HEK293); assay: Resazurin cytotoxicity assay, HEK 293
Description: as §1, §2

[4] = tested on: human hepatocellular carcinoma cells (Hep-G2); assay: Resazurin cytotoxicity assay, HepG2
Description: as §1, §2

[5] = tested on: methicillin-resistant Staphylococcus aureus (MRSA); assay: Resazurin bacterial inhibition assay (MIC), MRSA; assay type: cell-based; conditions: commercial compounds, 18 h, resazurin, read-out: Minimum Inhibitory Concentration MRSA
[6] = tested on: P. aeruginosa PAO1; assay: Resazurin bacterial inhibition assay (MIC), P. aeruginosa; assay type: cell-based; conditions: Pseudomonas aeruginosa, PAO1; commercial compounds; 18 h, resazurin; read-out: Minimum Inhibitory Concentration P. aeruginosa
[7] = tested on: human leukaemia cells (THP-1); assay: Resazurin cytotoxicity assay, THP-1
Description: as §1
as §2, with “Extract samples at a final concentration of 0.5 mg mL^−1 were added to the wells, then the plates incubated for 4 more days in a humidified 5% CO2 incubator at 37 °C.” left out

[8] = tested on: E. coli EC958; assay: Resazurin bacterial inhibition assay (MIC), E. coli; assay type: cell-based; conditions: commercial compounds, 18 h, resazurin, read-out: Minimum Inhibitory Concentration E. coli
[9] = commercial compounds, unit from Table 8 head
[10] = commercial compounds, unit from Table 8 head, listed as 1,10 phenanthroline

| SMILES | MIC [1] [µM] | Minimum Toxicity Concentration A549 ([2]; human, 4 days) [µM] | Minimum Toxicity Concentration HEK 293 ([3]; human, 4 days) [µM] | Minimum Toxicity Concentration HepG2 ([4]; human, 4 days) [µM] | MIC ([5]; Staphylococcus aureus, MRSA) [µM] | MIC [6] [µM] | Minimum Toxicity Concentration THP-1 ([7]; human, 4 days) [µM] | MIC ([8]; Escherichia coli, EC958) [µM] | MIC [8] [µM] | MIC [5] [µM] | Minimum Toxicity Concentration A549 [2, 9] [µM] | Minimum Toxicity Concentration HEK 293 [3, 9] [µM] | Minimum Toxicity Concentration HepG2 [4, 9] [µM] | Minimum Toxicity Concentration THP-1 [7, 9] [µM] | Minimum Toxicity Concentration A549 [2, 10] [µM] | Minimum Toxicity Concentration HEK 293 [3, 10] [µM] | Minimum Toxicity Concentration THP-1 [7, 10] [µM] |
| --- | --- | --- | --- | --- | --- | --- | --- | --- | --- | --- | --- | --- | --- | --- | --- | --- | --- |
| Cc1cc(-c2ccccc2)c2ccc3c(-c4ccccc4)cc(C)nc3c2n1 [2,9-Dimethyl-4,7-diphenyl-1,10-phenanthroline] | 50 (≈ 18 µg/mL) | >100 | 0.1 | 0.1 | 25 (≈ 9.01 µg/mL) | 50 (≈ 18 µg/mL) | >100 | 0.78 (≈ 0.281 µg/mL) |  |  |  |  |  |  |  |  |  |
| O=[N+]([O-])c1cc2cccnc2c2ncccc12 [5-Nitro-1,10-phenanthroline] | 0.1 (≈ 0.0225 µg/mL) | 12 | 0.1 | 0.1 | 0.09 (≈ 0.0203 µg/mL) | > 100 | 0.1 | 0.78 (≈ 0.176 µg/mL) |  |  |  |  |  |  |  |  |  |
| c1ccc(-c2ccnc3c2ccc2c(-c4ccccc4)ccnc23)cc1 [Bathophenanthroline] | 0.01 (≈ 0.00332 µg/mL) | 3 | 25 | 1.5 | 0.09 (≈ 0.0299 µg/mL) | 0.03 (≈ 0.00997 µg/mL) | 13 | 0.019 (≈ 0.00632 µg/mL) | 0.019 (≈ 0.00632 µg/mL) |  |  |  |  |  |  |  |  |
| O=C1C(=O)c2cccnc2-c2ncccc21 [1,10-Phenanthroline-5,6-dione] | 0.1 (≈ 0.021 µg/mL) | 0.1 | 0.1 | 0.1 | 0.04 (≈ 0.00841 µg/mL) | 0.04 (≈ 0.00841 µg/mL) | 0.1 | 0.04 (≈ 0.00841 µg/mL) |  | 0.04 (≈ 0.00841 µg/mL) |  |  |  |  |  |  |  |
| c1ccc(-c2ccccn2)nc1 [2,2′-Bipyridine] | 0.1 (≈ 0.0156 µg/mL) |  |  |  | > 100 | > 100 |  | > 100 |  |  | >100 | 3 | 3 | 50 |  |  |  |
| CCN(CC)CC [Triethylamine] | > 100 | >100 | >100 | >100 | > 100 | > 100 | >100 | > 100 |  |  |  |  |  |  |  |  |  |
| c1cnc2c(c1)ccc1cccnc12 [1,10-phenanthroline] | 0.1 (≈ 0.018 µg/mL) |  |  |  | > 100 | 0.3 (≈ 0.0541 µg/mL) |  | 50 (≈ 9.01 µg/mL) |  |  | 3 | 50 | 0.1 | 0.1 | 50 | 0.1 | 3 |
| c1ccc(CN(Cc2ccccc2)Cc2ccccc2)cc1 [Tribenzylamine] | > 100 |  |  |  | > 100 | 6.5 (≈ 1.87 µg/mL) |  | > 100 |  |  | >100 | >100 | >100 | >100 |  |  |  |
| CCCCCCCCN(CCCCCCCC)CCCCCCCC [Trioctylamine] | 0.02 (≈ 0.00707 µg/mL) |  |  |  | 12.5 (≈ 4.42 µg/mL) | 25 (≈ 8.84 µg/mL) |  | 25 (≈ 8.84 µg/mL) |  |  | 50 | 6 | >100 | 3.1 |  |  |  |
| c1ccc2ncccc2c1 [Quinoline] | 0.1 (≈ 0.0129 µg/mL) | 50 |  | 3 | > 100 | > 100 |  | > 100 |  |  |  |  |  |  |  |  |  |
| Cc1cnc2c(ccc3c(C)c(C)cnc32)c1C [3,4,7,8-Tetramethyl-1,10-phenanthroline] | 0.1 (≈ 0.0236 µg/mL) |  |  |  | 0.3 (≈ 0.0709 µg/mL) | 0.3 (≈ 0.0709 µg/mL) |  | 0.3 (≈ 0.0709 µg/mL) |  |  | 0.1 | 0.1 | 0.1 | 0.1 |  |  |  |
| c1ccc2cnccc2c1 [Isoquinoline] | 0.1 (≈ 0.0129 µg/mL) |  |  | 3 | > 100 | > 100 |  | > 100 |  |  |  |  |  |  |  |  |  |
